The subject of test [1] is Thoracic aorta. The experiment in a line: Vaso-relaxant activity: relaxation of K+-induced contraction of rat thoracic aorta strips. The arrangement: species or system rats. The note with it: rat thoracic aorta strips denuded of endothelium, contraction induced by 20mM K⁺, cumulative concentration; read-out: Vaso-relaxant EC₉₀. As to the method: The test methods used were adapted from those described by Winslow et al [Eur. J. Pharmacol., 131, 219-228 (1986)] and Karaki [J. Pharmacol Methods, 18, 1-21, (1987)] for differentiating vaso-relaxant activity.
Thoracic aorta was removed from rats and transverse strips, denuded of endothelium, were suspended in a bath containing Krebs solution. The tension was recorded and a contraction induced by addition of 20mM K⁺ (potassium ion) to the bathing solution. The test compound was added to the bath as a solution in increasing cumulative concentration. The concentration in the bathing solution of the test compound which reduced the K⁺-induced contraction was determined and expressed in nM as the effective concentration (EC₉₀)

Test [2] has as its system mean blood pressure. As to the kind of experiment: Hypotensive activity in the anaesthetised rat. The class given is in vivo. The note with it: intravenous dose required to reduce the mean blood pressure. As to the method: The intravenous dose required to reduce the mean blood pressure in an anaesthetised rat was determined and expressed in µg/kg/min as the effective concentration (EC₃₀).

Test [3] relates to histamine-induced bronchospasm and blood pressure. As to the kind of experiment: Broncho-relaxant activity in the anaesthetised guinea pig (method of Dixon and Brodie). In kind it is in vivo. The note with it: nebulised aerosol of 200µg/ml aqueous solution for 1 minute; for Broncho-relaxant % maximum bronchospasm: histamine-induced bronchospasm. As to the method:
In in vivo tests in the anaesthetised guinea pig, performed according to the method of Dixon W.E. and Brodie T.G., J. Physiol 29, 97-173 (1903), the effect on histamine-induced bronchospasm and blood pressure was determined.
A nebulised aerosol generated from an aqueous solution , having a concentration of 200µg/ml was administered for 1 minute to the anaesthetised guinea pigs.

With `CNC(=S)[C@]1(c2cccnc2)CCCC/C1=N\OCc1c(F)c(F)c(F)c(F)c1F` [Compound 1, (1S)-anti-N-methyl-2-(2,3,4,5,6-pentafluorobenzyloxyimino)-1-(pyrid-3-yl)cyclohexanecarbothioamide], the EC90 in test [1] was determined as 1 nM. Besides, the “Hypotensive EC₃₀” value in test [2] is recorded as 0.9 µg/kg/min. Further, in test [3], the “Broncho-relaxant % maximum bronchospasm” value was found to be 28% and the “Broncho-relaxant B.P.” value is recorded as 40 mmHg.
Consider `CNC(=S)[C@]1(c2cccnc2)CCCC/C1=N\OCc1ccc(F)c(F)c1` [Compound 2, (1S)-anti-N-methyl-2-(3,4-difluorobenzyloxyimino)-1-(pyrid-3-yl)cyclohexanecarbothioamide], for which the EC90 in test [1] worked out at 0.3 nM. Also, the “Hypotensive EC₃₀” value in test [2] was 0.5 µg/kg/min. Further, in test [3], the “Broncho-relaxant % maximum bronchospasm” value is recorded as 17% and the “Broncho-relaxant B.P.” value turned out to be 32 mmHg.

The values above are taken from patent publication EP0404671A1, “Thioformamide derivatives” (RHONE-POULENC SANTE, priority 1989, dated 1990).
